Counter-ions that a name gives are not always drawn.
tested on: B cells in human blood; experiment: Inhibition of B cell activation in whole blood measured by CD69 expression; assay type: cell-based; settings: CD69-positive, CD20-positive cells after anti-IgM stimulation, human whole blood, 20 hours, read-out: Human Whole Blood
Description: Inhibition of B Cell Activation in Whole Blood Measured by CD69 Expression
A procedure to test the ability of Btk inhibitors to suppress B cell receptor-mediated activation of B cells in human blood is as follows:
Human whole blood (HWB) is obtained from healthy volunteers, with the following restrictions: 24 hr drug-free, non-smokers. Blood is collected by venipuncture into Vacutainer tubes anticoagulated with sodium heparin. Test compounds are diluted to […] the desired starting drug concentration in PBS (20×), followed by three-fold serial dilutions in 10% DMSO in PBS to produce a nine point dose-response curve. 5.5 μl of each compound dilution is added in duplicate to a 2 ml96-well V bottom plate (Analytical Sales and Services, #59623-23); 5.5 μl of 10% DMSO in PBS is added to control and no-stimulus wells. HWB (100 μl) is added to each well, and after mixing the plates are incubated at 37 C, 5% CO2, 100% humidity for 30 minutes. Goat F(ab′)2 anti-human IgM (Southern Biotech, #2022-14) (10 μl of a […] solution, 50 μg/ml final concentration) is added to each well (except the no-stimulus wells) with mixing and the plates are incubated for an additional 20 hours.
At the end of the 20 hour incubation, samples are incubated with florescent-probe-labeled anti-bodies (15 μl PE Mouse anti-Human CD20, BD Pharmingen, #555623, and/or 20 ul APC Mouse anti-Human CD69, BD Pharmingen #555533) for 30 minutes, at 37 C, 5% CO2, 100% humidity. Included are induced control, unstained and single stains for compensation adjustments and initial voltage settings. Samples are then lysed with 1 ml of 1× Pharmingen Lyse Buffer (BD Pharmingen #555899), and plates are centrifuged at 1800 rpm for 5 minutes. Supernatants are removed via suction and the remaining pellets are lysed again with another 1 ml of 1× Pharmingen Lyse Buffer, and plates are spun down as before. Supernatants are aspirated and remaining pellets are washed in FACs buffer (PBS+1% FBS). After a final spin, the supernantants are removed and pellets are resuspended in 180 μl of FACs buffer. Samples are transferred to a 96 well plate suitable to be run on the HTS 96 well system on the BD LSR II flow cytometer.
Using appropriate excitation and emission wavelengths for the fluorophores used, data are acquired and percent positive cell values are obtained using Cell Quest Software. Results are initially analyzed by FACS analysis software (Flow Jo). […] The IC50 values are calculated using XLfit software version 3, equation 201.
Representative compound data for this assay are listed below in Table II.

Row | IC50 [nM] | SMILES
1 | 7 | CN1CCC[C@@H]1c1ccc(Nc2cc(-c3cccc(-n4ncc5cc(C(C)(C)C)cc(F)c5c4=O)c3CO)nn(C)c2=O)nc1 [I-19, 6-tert-Butyl-8-fluoro-2-(2-hydroxymethyl-3-{1-methyl-5-[5-((R)-1-methyl-pyrrolidin-2-yl)-pyridin-2-ylamino]-6-oxo-1,6-dihydro-pyridazin-3-yl}-phenyl)-2H-phthalazin-1-one]
2 | 109 | Cn1nc(-c2cccc(-n3ncc4cc(C(C)(C)C)cc(F)c4c3=O)c2CO)cc(Nc2ccc(C(=O)N3CCC(C)(O)CC3)cn2)c1=O [I-21, 6-tert-butyl-8-fluoro-2-(2-hydroxymethyl-3-{5-[5-(4-hydroxy-4-methyl-piperidine-1-carbonyl)-pyridin-2-ylamino]-1-methyl-6-oxo-1,6-dihydro-pyridazin-3-yl}-phenyl)-2H-phthalazin-1-one]
3 | 33 | CN1CC2(C1)CN(c1ccc(Nc3cc(-c4cccc(-n5ncc6cc(C(C)(C)C)cc(F)c6c5=O)c4CO)nn(C)c3=O)nc1)C2 [I-22, 6-tert-butyl-8-fluoro-2-(2-hydroxymethyl-3-{1-methyl-5-[5-(6-methyl-2,6-diaza-spiro[3.3]hept-2-yl)-pyridin-2-ylamino]-6-oxo-1,6-dihydro-pyridazin-3-yl}-phenyl)-2H-phthalazin-1-one]
4 | 60 | CCS(=O)(=O)c1ccc(Nc2cc(-c3cccc(-n4ncc5cc(C(C)(C)C)cc(F)c5c4=O)c3CO)nn(C)c2=O)nc1 [I-23, 6-tert-Butyl-2-{3-[5-(5-ethanesulfonyl-pyridin-2-ylamino)-1-methyl-6-oxo-1,6-dihydro-pyridazin-3-yl]-2-hydroxymethyl-phenyl}-8-fluoro-2H-phthalazin-1-one]
5 | 116 | CC(C)S(=O)(=O)c1ccc(Nc2cc(-c3cccc(-n4ncc5cc(C(C)(C)C)cc(F)c5c4=O)c3CO)nn(C)c2=O)nc1 [I-24, 6-tert-Butyl-8-fluoro-2-(2-hydroxymethyl-3-{1-methyl-6-oxo-5-[5-(propane-2-sulfonyl)-pyridin-2-ylamino]-1,6-dihydro-pyridazin-3-yl}-phenyl)-2H-phthalazin-1-one]
6 | 152 | Cn1nc(-c2cccc(-n3ncc4cc(C(C)(C)C)cc(F)c4c3=O)c2CO)cc(Nc2ccc(S(=O)(=O)CCO)cn2)c1=O [I-26, 6-tert-Butyl-8-fluoro-2-(3-{5-[5-(2-hydroxyethanesulfonyl)-pyridin-2-ylamino]-1-methyl-6-oxo-1,6-dihydro-pyridazin-3-yl}-2-hydroxymethyl-phenyl)-2H-phthalazin-1-one]
7 | 89 | CC(C)N1CCN(c2ccc(Nc3cc(-c4cccc(-n5ncc6cc(C(C)(C)C)cc(F)c6c5=O)c4CO)nn(C)c3=O)nc2)CC1 [I-27, 6-tert-Butyl-8-fluoro-2-(2-hydroxymethyl-3-{5-[5-(4-isopropyl-piperazin-1-yl)-pyridin-2-ylamino]-1-methyl-6-oxo-1,6-dihydro-pyridazin-3-yl}-phenyl)-2H-phthalazin-1-one HCl]
8 | 6 | CN1CCC(c2ccc(Nc3cc(-c4cccc(-n5ncc6cc(C(C)(C)C)cc(F)c6c5=O)c4CO)nn(C)c3=O)nc2)C1 (centres unmarked) [I-28, 6-tert-Butyl-8-fluoro-2-(2-hydroxymethyl-3-{1-methyl-5-[5-(1-methyl-pyrrolidin-3-yl)-pyridin-2-ylamino]-6-oxo-1,6-dihydro-pyridazin-3-yl}-phenyl)-2H-phthalazin-1-one]
9 | 15 | CC(C)N1CCC(c2ccc(Nc3cc(-c4cccc(-n5ncc6cc(C(C)(C)C)cc(F)c6c5=O)c4CO)nn(C)c3=O)nc2)CC1 [I-29, 6-tert-Butyl-8-fluoro-2-{2-hydroxymethyl-3-[5-(1′-isopropyl-1′,2′,3′,4′,5′,6′-hexahydro-[3,4′]bipyridinyl-6-ylamino)-1-methyl-6-oxo-1,6-dihydro-pyridazin-3-yl]-phenyl}-2H-phthalazin-1-one]
10 | 4 | CCN1CCC(c2ccc(Nc3cc(-c4cccc(-n5ncc6cc(C(C)(C)C)cc(F)c6c5=O)c4CO)nn(C)c3=O)nc2)CC1 [I-30, 6-tert-Butyl-2-{3-[5-(1′-ethyl-1′,2′,3′,4′,5′,6′-hexahydro-[3,4]bipyridinyl-6-ylamino)-1-methyl-6-oxo-1,6-dihydro-pyridazin-3-yl]-2-hydroxymethyl-phenyl}-8-fluoro-2H-phthalazin-1-one]
11 | 32 | Cc1cc(Nc2cc(-c3cccc(-n4ncc5cc(C(C)(C)C)cc(F)c5c4=O)c3CO)nn(C)c2=O)nn1C [I-31, 6-tert-Butyl-2-{3-[5-(1,5-dimethyl-1H-pyrazol-3-ylamino)-1-methyl-6-oxo-1,6-dihydro-pyridazin-3-yl]-2-hydroxymethyl-phenyl}-8-fluoro-2H-phthalazin-1-one]
12 | 23 | CN1CC[C@@H](c2ccc(Nc3cc(-c4cccc(-n5ncc6cc(C(C)(C)C)cc(F)c6c5=O)c4CO)nn(C)c3=O)nc2)C1 [I-32, 6-tert-Butyl-8-fluoro-2-(2-hydroxymethyl-3-[1-methyl-5-[5-((S)-1-methyl-pyrrolidin-3-yl)-pyridin-2-ylamino]-6-oxo-1,6-dihydro-pyridazin-3-yl]-phenyl)-2H-phthalazin-1-one]
13 | 2 | CN1CC[C@H](c2ccc(Nc3cc(-c4cccc(-n5ncc6cc(C(C)(C)C)cc(F)c6c5=O)c4CO)nn(C)c3=O)nc2)C1 [I-33, 6-tert-Butyl-8-fluoro-2-(2-hydroxymethyl-3-{1-methyl-5-[5-((R)-1-methyl-pyrrolidin-3-yl)-pyridin-2-ylamino]-6-oxo-1,6-dihydro-pyridazin-3-yl}-phenyl)-2H-phthalazin-1-one]
14 | 15 | CN1CCN(Cc2ccc(Nc3cc(-c4cccc(-n5ncc6cc(C(C)(C)C)cc(F)c6c5=O)c4CO)nn(C)c3=O)nc2)CC1 [I-41, 6-tert-Butyl-8-fluoro-2-(2-hydroxymethyl-3-{1-methyl-5-[5-(4-methyl-piperazin-1-ylmethyl)-pyridin-2-ylamino]-6-oxo-1,6-dihydro-pyridazin-3-yl}-phenyl)-2H-phthalazin-1-one]
15 | 14 | COCCN(C)Cc1ccc(Nc2cc(-c3cccc(-n4ncc5cc(C(C)(C)C)cc(F)c5c4=O)c3CO)nn(C)c2=O)nc1 [I-44, 6-tert-Butyl-8-fluoro-2-{2-hydroxymethyl-3-[5-(5-{[(2-methoxy-ethyl)-methyl-amino]-methyl}-pyridin-2-ylamino)-1-methyl-6-oxo-1,6-dihydro-pyridazin-3-yl]-phenyl}-2H-phthalazin-1-one]
16 | 27 | CN1CCN(c2ccc(Nc3cc(-c4cccc(-n5ncc6cc(C(C)(C)C)cc(F)c6c5=O)c4CO)nn(C)c3=O)nn2)CC1 [I-45, 6-tert-Butyl-8-fluoro-2-(2-hydroxymethyl-3-{1-methyl-5-[6-(4-methyl-piperazin-1-yl)-pyridazin-3-ylamino]-6-oxo-1,6-dihydro-pyridazin-3-yl}-phenyl)-2H-phthalazin-1-one]
17 | 293 | CN1C[C@@H]2C[C@H]1CN2c1ccc(Nc2cc(-c3cccc(-n4ncc5cc(C(C)(C)C)cc(F)c5c4=O)c3CO)nn(C)c2=O)nn1 [I-46, 6-tert-Butyl-8-fluoro-2-(2-hydroxymethyl-3-{1-methyl-5-[6-((1S,4S)-5-methyl-2,5-diaza-bicyclo[2.2.1]hept-2-yl)-pyridazin-3-ylamino]-6-oxo-1,6-dihydro-pyridazin-3-yl}-phenyl)-2H-phthalazin-1-one]
18 | 76 | Cn1nc(-c2cccc(-n3ncc4cc(C(C)(C)C)cc(F)c4c3=O)c2CO)cc(Nc2ccc(C(=O)N3CCC3)cn2)c1=O [I-47, 2-(3-{5-[5-(Azetidine-1-carbonyl)-pyridin-2-ylamino]-1-methyl-6-oxo-1,6-dihydro-pyridazin-3-yl}-2-hydroxymethyl-phenyl)-6-tert-butyl-8-fluoro-2H-phthalazin-1-one]
19 | 185 | Cn1nc(-c2cccc(-n3ncc4cc(C(C)(C)C)cc(F)c4c3=O)c2CO)cc(Nc2ccc(C(=O)N3CCS(=O)(=O)CC3)cn2)c1=O [I-48, 6-tert-Butyl-2-(3-{5-[5-(1,1-dioxo-1λ^6-thiomorpholine-4-carbonyl)-pyridin-2-ylamino]-1-methyl-6-oxo-1,6-dihydro-pyridazin-3-yl}-2-hydroxymethyl-phenyl)-8-fluoro-2H-phthalazin-1-one]

Row | SMILES | IC50 [nM]
20 | CN(C)C(=O)c1ccc(Nc2cc(-c3cccc(-n4ncc5cc(C(C)(C)C)cc(F)c5c4=O)c3CO)nn(C)c2=O)nc1 [I-20] | 15
